Tests used:
HIS-TGFβR2 WT = HIS-TGFβR2 WT (Homo sapiens (Human), UniProt P37173); assay: HTRF probe displacement assay, HIS-TGFβR2 WT; type: binding; settings: 1 nM HIS-TGFβR2 WT, 1 hour at room temperature, read-out: TGFBR2WT IC50
Procedure: (§1) Compounds were dissolved at 10 mM in dimethylsulfoxide (DMSO) and evaluated at eleven concentrations. IC50 values were derived by non-linear regression analysis.

HIS-TGFβR1 T204D = HIS-TGFβR1 T204D (Homo sapiens (Human), UniProt P36897, T204D); assay: HTRF probe displacement assay, HIS-TGFβR1 T204D; type: binding; settings: 1 nM HIS-TGFβR1 T204D, 1 hour at room temperature, read-out: TGFBR1T204D IC50
Procedure: as §1

HIS-TGFβR1 T204D, sequence (P36897 34-503 T204D): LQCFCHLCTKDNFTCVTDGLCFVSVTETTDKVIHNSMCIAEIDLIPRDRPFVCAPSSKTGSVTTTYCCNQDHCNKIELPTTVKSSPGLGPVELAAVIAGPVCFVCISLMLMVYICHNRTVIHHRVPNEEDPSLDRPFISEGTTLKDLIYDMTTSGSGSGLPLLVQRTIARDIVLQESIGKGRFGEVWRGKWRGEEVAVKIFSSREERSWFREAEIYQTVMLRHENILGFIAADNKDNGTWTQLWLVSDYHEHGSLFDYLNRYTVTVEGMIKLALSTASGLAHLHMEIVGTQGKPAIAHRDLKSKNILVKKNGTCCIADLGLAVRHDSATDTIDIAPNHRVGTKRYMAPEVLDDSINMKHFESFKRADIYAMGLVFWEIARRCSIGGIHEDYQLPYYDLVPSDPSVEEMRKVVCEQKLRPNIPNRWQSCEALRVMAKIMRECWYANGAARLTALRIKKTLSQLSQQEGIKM
HIS-TGFβR2 WT, sequence (P37173 23-567): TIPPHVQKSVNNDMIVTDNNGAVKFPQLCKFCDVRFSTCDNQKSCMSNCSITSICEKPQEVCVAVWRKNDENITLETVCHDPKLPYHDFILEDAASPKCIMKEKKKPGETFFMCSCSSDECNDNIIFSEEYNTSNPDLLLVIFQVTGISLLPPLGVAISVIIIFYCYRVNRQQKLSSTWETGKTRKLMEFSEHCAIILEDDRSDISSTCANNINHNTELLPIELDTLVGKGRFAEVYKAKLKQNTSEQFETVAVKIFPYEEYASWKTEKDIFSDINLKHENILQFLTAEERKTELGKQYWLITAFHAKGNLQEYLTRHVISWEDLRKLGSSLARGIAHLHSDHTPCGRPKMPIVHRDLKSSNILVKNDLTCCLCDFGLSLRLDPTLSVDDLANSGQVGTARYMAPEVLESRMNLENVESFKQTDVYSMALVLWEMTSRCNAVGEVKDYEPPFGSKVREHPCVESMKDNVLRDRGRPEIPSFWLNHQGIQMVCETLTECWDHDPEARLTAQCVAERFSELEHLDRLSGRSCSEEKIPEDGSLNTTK

| Structure (SMILES) | IC50 (HIS-TGFβR2 WT) [nM] | IC50 (HIS-TGFβR1 T204D) [nM] |
| --- | --- | --- |
| COc1cccc(-c2ncccc2-c2ccc3ncc(C#N)n3c2)n1 [Compound 17, 6-(6′-methoxy-[2,2′-bipyridin]-3-yl)imidazo[1,2-a]pyridine-3-carbonitrile] | > 15000 | 9 |
| CC(C)(O)c1cccc(-c2ncccc2-c2ccc3ncc(C#N)n3c2)n1 [Compound 41] | > 15000 | 15000 |
| Cc1cccc(-c2nc(C)ccc2-c2ccc3ncc(C(N)=O)n3c2)n1 [Compound 87] | > 15000 | 15 |
| CC(C)c1cccc(-c2ncccc2-c2ccc3ncc(C#N)n3c2)n1 [Compound 31, 6-(6′-isopropyl-[2,2′-bipyridin]-3-yl)imidazo[1,2-a]pyridine-3-carbonitrile] | > 15000 | 307 |
| N#Cc1cnc2ccc(-c3cccnc3-c3cccc(F)n3)cn12 [Compound 36, 6-(6′-fluoro-[2,2′-bipyridin]-3-yl)imidazo[1,2-a]pyridine-3-carbonitrile] | > 15000 | 120 |
| N#Cc1cnc2ccc(-c3cccnc3-c3ccc(F)c(C(F)F)n3)cn12 [Compound 23, 6-(6′-(difluoromethyl)-5′-fluoro-[2,2′-bipyridin]-3-yl)imidazo[1,2-a]pyridine-3-carbonitrile] | > 15000 | 130 |
| COCCNC(=O)c1cnc2ccc(-c3cccnc3-c3cccc(C)n3)cn12 [Compound 70, N-(2-methoxyethyl)-6-(6′-methyl-[2,2′-bipyridin]-3-yl)imidazo[1,2-a]pyridine-3-carboxamide] | > 15000 | 4 |
| NC(=O)c1cnc2ccc(-c3cccnc3-c3cccc(C(F)(F)F)n3)cn12 [Compound 18, 6-(6′-(trifluoromethyl)-[2,2′-bipyridin]-3-yl)imidazo[1,2-a]pyridine-3-carboxamide] | > 15000 | 1 |
| COC(=O)c1ccc(-c2ncccc2-c2ccc3ncc(C(N)=O)n3c2)nc1 [Compound 26, methyl 3′-(3-carbamoylimidazo[1,2-a]pyridin-6-yl)-[2,2′-bipyridine]-5-carboxylate] | > 15000 | 7650 |
| N#Cc1cnc2ccc(-c3cccnc3-c3cccc(C(F)F)n3)nn12 [Compound 49, 6-(6′-(difluoromethyl)-[2,2′-bipyridin]-3-yl)imidazo[1,2-b]pyridazine-3-carbonitrile] | > 15000 | 61 |
| N#Cc1cnc2ccc(-c3cccnc3-c3ccc(F)cn3)cn12 [Compound 20, 6-(5′-fluoro-[2,2′-bipyridin]-3-yl)imidazo[1,2-a]pyridine-3-carbonitrile] | > 15000 | 103 |
| CC(=O)c1cccc(-c2ncccc2-c2ccc3ncc(C#N)n3c2)n1 [Compound 40, 6-(6′-acetyl-[2,2′-bipyridin]-3-yl)imidazo[1,2-a]pyridine-3-carbonitrile] | > 15000 | 821 |
| CS(=O)(=O)Nc1cccc(-c2ncccc2-c2ccc3ncc(C#N)n3c2)n1 [Compound 44, N-(3′-(3-cyanoimidazo[1,2-a]pyridin-6-yl)-[2,2′-bipyridin]-6-yl)methanesulfonamide] | > 15000 | 1980 |
| Cc1cccc(-c2nccc(CO)c2-c2ccc3ncc(C#N)n3c2)n1 [Compound 92, 6-(4-(hydroxymethyl)-6′-methyl-[2,2′-bipyridin]-3-yl)imidazo[1,2-a]pyridine-3-carbonitrile] | > 15000 | 487 |
| NC(=O)c1cnc2ccc(-c3cccnc3-c3cccc(Cl)n3)cn12 [Compound 46, 6-(6′-chloro-[2,2′-bipyridin]-3-yl)imidazo[1,2-a]pyridine-3-carboxamide] | > 15000 | 0.4 |

Second part, the molecule after the results:

| IC50 (HIS-TGFβR2 WT) [nM] | IC50 (HIS-TGFβR1 T204D) [nM] | Structure (SMILES) |
| --- | --- | --- |
| > 15000 | 242 | Cc1nc(-c2ncccc2-c2ccn3ncc(C#N)c3n2)ccc1F [Compound 122, 5-(5′-fluoro-6′-methyl-[2,2′-bipyridin]-3-yl)pyrazolo[1,5-a]pyrimidine-3-carbonitrile] |
| > 15000 | 5 | Cc1cccc(-c2ncccc2-c2ccn3nccc3n2)n1 [Compound 138, 5-(6′-methyl-[2,2′-bipyridin]-3-yl)pyrazolo[1,5-a]pyrimidine] |
| > 15000 | 854 | N#Cc1cnn2ccc(-c3cccnc3-c3cccc(C(F)(F)F)n3)nc12 [Compound 121, 5-(6′-(trifluoromethyl)-[2,2′-bipyridin]-3-yl)pyrazolo[1,5-a]pyrimidine-3-carbonitrile] |
| > 15000 | 107 | O=C(O)c1cnn2ccc(-c3cccnc3-c3cccc(C(F)F)n3)nc12 [Compound 135, 5-(6′-(difluoromethyl)-[2,2′-bipyridin]-3-yl)pyrazolo[1,5-a]pyrimidine-3-carboxylic acid] |
| > 15000 | 716 | CC(=O)Nc1ccnc(-c2cccc(C)n2)c1-c1ccc2ncc(C(N)=O)n2c1 [Compound 102, 6-(4-acetamido-6′-methyl-[2,2′-bipyridin]-3-yl)imidazo[1,2-a]pyridine-3-carboxamide] |
| > 15000 | 15000 | Cc1cccc(-c2nccc(C(F)F)c2-c2ccc3ncc(C#N)n3c2)n1 [Compound 93, 6-(4-(difluoromethyl)-6′-methyl-[2,2′-bipyridin]-3-yl)imidazo[1,2-a]pyridine-3-carbonitrile] |
| > 15000 | 4 | Nc1ncnc2ccc(-c3cccnc3-c3cccc(C4CC4)n3)nc12 [Compound 106, 6-(6′-cyclopropyl-[2,2′-bipyridin]-3-yl)pyrido[3,2-d]pyrimidin-4-amine] |
| > 15000 | 14 | Fc1ccc(-c2ncccc2-c2ccc3[nH]ncc3c2)nc1 [Compound 116, 5-(5′-fluoro-[2,2′-bipyridin]-3-yl)-1H-indazole] |
| > 15000 | 43 | CC(=O)Nc1cnc(-c2cccc(C)n2)c(-c2ccc3ncc(C#N)n3c2)c1 [Compound 96, N-(3-(3-cyanoimidazo[1,2-a]pyridin-6-yl)-6′-methyl-[2,2′-bipyridin]-5-yl)acetamide] |
| > 15000 | 8 | Cc1nc(-c2ncccc2-c2ccn3nccc3n2)ccc1F [Compound 137, 5-(5′-fluoro-6′-methyl-[2,2′-bipyridin]-3-yl)pyrazolo[1,5-a]pyrimidine] |
| > 15000 | 3 | Nc1ncnc2ccc(-c3cccnc3-c3cccc(C(F)F)n3)nc12 [Compound 105, 6-(6′-(difluoromethyl)-[2,2′-bipyridin]-3-yl)pyrido[3,2-d]pyrimidin-4-amine] |
| > 15000 | 172 | CC(C)c1cccc(-c2ncccc2-c2ccc3ncnc(N)c3c2)n1 [Compound 108, 6-(6′-isopropyl-[2,2′-bipyridin]-3-yl)quinazolin-4-amine] |
| > 15000 | 29 | Cc1cccc(-c2ncccc2-c2ccn3ncc(C(=O)NC4COC4)c3n2)n1 [Compound 129, 5-(6′-methyl-[2,2′-bipyridin]-3-yl)-N-(oxetan-3-yl)pyrazolo[1,5-a]pyrimidine-3-carboxamide] |
| > 15000 | 46 | CCOC(=O)c1cnn2ccc(-c3cccnc3-c3cccc(C(F)(F)F)n3)nc12 [Compound 123, ethyl 5-(6′-(trifluoromethyl)-[2,2′-bipyridin]-3-yl)pyrazolo[1,5-a]pyrimidine-3-carboxylate] |

— patent US9981944B2, “GDF-8 inhibitors” (Rigel Pharmaceuticals, Inc., priority 2015, dated 2018)
